This note sets out measurements from patent US20240174657A1, “SELECTIVE ANGIOTENSIN II RECEPTOR LIGANDS” (priority 2021, published 2024).

For orientation: IC50 means the concentration that gives 50% inhibition. In general, Ki refers to a dissociation constant, usually derived from enzyme kinetics or from competition with a known ligand.

Bounds are passed on as bounds.

One series addresses T1, CYP1A (Homo sapiens, UniProt P05177).
T1 construct: using isoform-specific substrates incubated with human liver microsomes; tissue Eurofins protocol ITEMG232; host or cells: human liver microsomes
Kind of series: CYP inhibition in human liver microsomes, phenacetin substrate. Format: in vitro ADME. Particulars: probe phenacetin, read-out: CYP1A Inh %. For orientation: Liver microsomes are vesicles of endoplasmic reticulum, rich in cytochrome P450 enzymes.

Series [1] is described as follows: Metabolic stability in pooled human liver microsomes. Format: in vitro ADME. Particulars: human liver microsomes 0.5 mg/mL, 1 uM test compound, 37° C.; for T1/2, + NaDPH: with 1 mM NADPH; for half-life at 1 uM: pooled human liver microsomes, without NADPH, read-out: T1/2, no NaDPH. The method, then:
Pooled human liver microsomes in PBS at a concentration of 0.5 mg/mL was incubated with or without 1 mM NADPH for 70 min at 37° C. Test compound was added after 10 minutes to a final concentration of 1 uM. Samples were withdrawn at 0, 5, 15 and 60 minutes and added to test tubes containing acetonitrile, to stop the reaction, and with terfenadine, used as internal standard. After centrifugation at 10 000×g for 5 minutes the supernatant was diluted 1:1 with 1% formic acid. Samples were separated on a reverse phase column and detected by triple quadrupole MSMS (Agilant model 6540). The concentration of the parent compound at the different time points was measured with an external standard curve using terfenadine as internal standard and the initial metabolic rate in the presence or absence of NADPH calculated.

In series [2] the target is T2, human recombinant AT2 receptor (Homo sapiens, UniProt P50052).
T2 sequence (P50052 1-363): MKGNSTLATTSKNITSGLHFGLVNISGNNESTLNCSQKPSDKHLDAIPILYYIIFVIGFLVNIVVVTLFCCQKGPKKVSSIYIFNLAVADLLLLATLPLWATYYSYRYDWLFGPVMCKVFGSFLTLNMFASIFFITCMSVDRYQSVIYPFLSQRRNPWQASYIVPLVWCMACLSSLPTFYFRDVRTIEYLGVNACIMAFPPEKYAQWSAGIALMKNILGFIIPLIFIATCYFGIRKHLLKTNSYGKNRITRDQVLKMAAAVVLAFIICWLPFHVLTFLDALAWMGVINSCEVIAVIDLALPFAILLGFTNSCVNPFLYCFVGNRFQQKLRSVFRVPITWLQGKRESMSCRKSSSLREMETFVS
The experiment in a line: biochemical. Particulars: ligand 125I CGP 42112A; for IC50: test concentrations 1, 10, 100 and 1000 nM, C21* = mean of runs, read-out: AT2 GraFit IC50. Format: binding.

The target of a further series is T3, CYP2C19 (Homo sapiens, UniProt P33261).
T3 construct: using isoform-specific substrates incubated with human liver microsomes; tissue Eurofins protocol ITEMG232; host or cells: human liver microsomes
T3 sequence (P33261 whole entry, canonical isoform): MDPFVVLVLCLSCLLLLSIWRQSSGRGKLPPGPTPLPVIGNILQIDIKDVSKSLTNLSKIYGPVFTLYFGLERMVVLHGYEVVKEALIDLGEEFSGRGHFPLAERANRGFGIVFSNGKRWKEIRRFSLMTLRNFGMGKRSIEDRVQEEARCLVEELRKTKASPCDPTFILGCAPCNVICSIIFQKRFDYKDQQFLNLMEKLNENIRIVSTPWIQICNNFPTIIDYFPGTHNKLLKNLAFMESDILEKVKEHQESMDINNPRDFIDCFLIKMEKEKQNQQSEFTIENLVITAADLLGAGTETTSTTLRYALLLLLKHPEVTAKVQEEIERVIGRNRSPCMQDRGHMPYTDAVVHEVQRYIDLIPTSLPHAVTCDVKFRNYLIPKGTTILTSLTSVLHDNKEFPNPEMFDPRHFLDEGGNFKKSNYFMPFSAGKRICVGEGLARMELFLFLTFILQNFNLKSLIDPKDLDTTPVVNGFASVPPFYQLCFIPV
Kind of series: CYP inhibition in human liver microsomes, omeprazole substrate. Format: in vitro ADME. As to conditions: probe omeprazole, read-out: CYP2C19 Inh %.

Another series deals with T4, CYP2C9 (Homo sapiens, UniProt P11712).
T4 construct: using isoform-specific substrates incubated with human liver microsomes; tissue Eurofins protocol ITEMG232; host or cells: human liver microsomes
T4 sequence (P11712 whole entry, canonical isoform): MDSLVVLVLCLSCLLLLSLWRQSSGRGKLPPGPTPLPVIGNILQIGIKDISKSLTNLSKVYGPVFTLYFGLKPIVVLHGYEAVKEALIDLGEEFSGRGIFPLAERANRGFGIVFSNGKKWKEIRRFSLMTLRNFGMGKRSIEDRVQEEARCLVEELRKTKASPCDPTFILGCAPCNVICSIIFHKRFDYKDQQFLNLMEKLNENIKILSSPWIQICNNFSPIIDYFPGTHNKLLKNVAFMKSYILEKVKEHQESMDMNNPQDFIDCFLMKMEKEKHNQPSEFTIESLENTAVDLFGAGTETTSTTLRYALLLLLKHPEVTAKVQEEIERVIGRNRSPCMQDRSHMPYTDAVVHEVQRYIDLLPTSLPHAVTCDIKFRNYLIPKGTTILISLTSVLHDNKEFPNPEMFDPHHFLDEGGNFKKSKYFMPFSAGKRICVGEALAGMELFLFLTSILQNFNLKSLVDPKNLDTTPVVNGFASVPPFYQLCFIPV
The experiment in a line: CYP inhibition in human liver microsomes, diclofenac substrate. Format: in vitro ADME. As to conditions: probe diclofenac, read-out: CYP2C9 Inh %.

Another series addresses T5, CYP2D6 (Homo sapiens, UniProt P10635).
T5 construct: tissue Eurofins protocol ITEMG232; host or cells: human liver microsomes
The experiment in a line: CYP inhibition in human liver microsomes, dextromethorphan substrate. As to conditions: probe dextromethorphan, read-out: CYP2D6 Inh %. Format: in vitro ADME.

Another series concerns the target T6, CYP2C8 (Homo sapiens, UniProt P10632).
T6 construct: using isoform-specific substrates incubated with human liver microsomes; tissue Eurofins protocol ITEMG232; host or cells: human liver microsomes
T6 sequence (P10632 1-490): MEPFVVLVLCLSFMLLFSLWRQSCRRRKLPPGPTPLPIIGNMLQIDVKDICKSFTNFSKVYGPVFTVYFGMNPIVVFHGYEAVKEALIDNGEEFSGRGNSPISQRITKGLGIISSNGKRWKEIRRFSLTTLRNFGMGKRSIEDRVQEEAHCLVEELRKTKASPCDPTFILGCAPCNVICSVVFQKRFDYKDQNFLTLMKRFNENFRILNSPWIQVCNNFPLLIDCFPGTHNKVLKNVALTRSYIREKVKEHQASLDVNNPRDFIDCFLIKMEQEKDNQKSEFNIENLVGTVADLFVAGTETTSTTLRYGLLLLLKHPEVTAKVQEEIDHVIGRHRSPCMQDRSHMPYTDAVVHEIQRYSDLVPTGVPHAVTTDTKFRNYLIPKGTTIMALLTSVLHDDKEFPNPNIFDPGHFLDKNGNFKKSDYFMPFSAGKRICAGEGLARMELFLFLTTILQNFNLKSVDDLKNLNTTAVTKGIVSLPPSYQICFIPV
The experiment in a line: CYP inhibition in human liver microsomes, paclitaxel and amodiaquine substrates. Format: in vitro ADME. As to conditions: probe paclitaxel and amodiaquine, read-out: CYP2C8 Inh %.

The target in the next series is T7, CYP3A4 (Homo sapiens, UniProt P08684).
T7 construct: using isoform-specific substrates incubated with human liver microsomes; tissue Eurofins protocol ITEMG232; host or cells: human liver microsomes
T7 sequence (P08684 whole entry, canonical isoform): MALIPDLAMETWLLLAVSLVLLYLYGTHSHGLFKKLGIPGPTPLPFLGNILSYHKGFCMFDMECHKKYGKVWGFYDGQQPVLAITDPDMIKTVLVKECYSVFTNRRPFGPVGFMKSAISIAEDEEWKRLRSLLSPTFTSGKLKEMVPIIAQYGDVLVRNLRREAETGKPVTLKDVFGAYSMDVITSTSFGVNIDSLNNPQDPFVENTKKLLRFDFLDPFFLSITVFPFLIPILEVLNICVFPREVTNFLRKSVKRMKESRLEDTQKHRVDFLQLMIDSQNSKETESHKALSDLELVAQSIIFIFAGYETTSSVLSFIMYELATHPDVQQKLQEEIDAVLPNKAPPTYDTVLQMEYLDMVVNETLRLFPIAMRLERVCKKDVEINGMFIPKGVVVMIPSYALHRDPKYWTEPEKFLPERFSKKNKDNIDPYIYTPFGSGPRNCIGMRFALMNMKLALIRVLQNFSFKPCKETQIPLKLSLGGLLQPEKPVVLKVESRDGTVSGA
The experiment in a line: CYP inhibition in human liver microsomes, midazolam substrate. Format: in vitro ADME. Particulars: probe midazolam, read-out: CYP3A4 midazolam Inh %.

For another series, the system named is CYP3A4&5. The experiment in a line: CYP inhibition in human liver microsomes, testosterone substrate. Format: in vitro ADME. Particulars: probe testosterone, read-out: CYP3A4&5 testosterone Inh %.
A further series concerns the target T8, CYP2B6 (Homo sapiens, UniProt P20813).
T8 construct: using isoform-specific substrates incubated with human liver microsomes; tissue Eurofins protocol ITEMG232; host or cells: human liver microsomes
T8 sequence (P20813 1-491): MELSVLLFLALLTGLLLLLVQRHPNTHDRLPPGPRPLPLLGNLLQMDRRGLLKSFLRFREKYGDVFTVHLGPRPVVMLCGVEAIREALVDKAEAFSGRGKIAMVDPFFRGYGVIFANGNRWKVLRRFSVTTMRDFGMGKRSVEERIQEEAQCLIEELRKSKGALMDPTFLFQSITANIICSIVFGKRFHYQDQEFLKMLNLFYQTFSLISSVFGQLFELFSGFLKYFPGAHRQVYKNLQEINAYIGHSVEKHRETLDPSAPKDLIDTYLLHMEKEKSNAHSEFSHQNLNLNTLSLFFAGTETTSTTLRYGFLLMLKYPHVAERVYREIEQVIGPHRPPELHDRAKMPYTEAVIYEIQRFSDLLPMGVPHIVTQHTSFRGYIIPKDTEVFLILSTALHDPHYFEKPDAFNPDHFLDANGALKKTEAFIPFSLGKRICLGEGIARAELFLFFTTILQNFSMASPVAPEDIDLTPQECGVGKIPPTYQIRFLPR
The experiment in a line: CYP inhibition in human liver microsomes, bupropion substrate. Format: in vitro ADME. Particulars: probe bupropion, read-out: CYP2B6 Inh %.

Series [3] concerns the target T9, human recombinant AT1 receptor (Homo sapiens, UniProt P30556).
T9 construct: Eurofins protocol ITEM24
T9 sequence (P30556 1-359): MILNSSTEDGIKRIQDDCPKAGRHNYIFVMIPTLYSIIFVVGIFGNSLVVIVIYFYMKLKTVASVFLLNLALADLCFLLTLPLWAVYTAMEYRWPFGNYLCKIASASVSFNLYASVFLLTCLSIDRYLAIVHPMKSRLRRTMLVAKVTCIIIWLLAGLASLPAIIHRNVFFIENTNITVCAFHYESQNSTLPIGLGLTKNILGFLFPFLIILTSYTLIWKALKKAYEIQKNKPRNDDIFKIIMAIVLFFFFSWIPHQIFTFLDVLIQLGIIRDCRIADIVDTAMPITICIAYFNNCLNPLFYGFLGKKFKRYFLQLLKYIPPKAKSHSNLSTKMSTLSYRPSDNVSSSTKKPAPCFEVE
The experiment in a line: Binding to AT1 receptor, radiometric scintillation assay (Eurofins ITEM24).

T5 sequence (P10635 whole entry): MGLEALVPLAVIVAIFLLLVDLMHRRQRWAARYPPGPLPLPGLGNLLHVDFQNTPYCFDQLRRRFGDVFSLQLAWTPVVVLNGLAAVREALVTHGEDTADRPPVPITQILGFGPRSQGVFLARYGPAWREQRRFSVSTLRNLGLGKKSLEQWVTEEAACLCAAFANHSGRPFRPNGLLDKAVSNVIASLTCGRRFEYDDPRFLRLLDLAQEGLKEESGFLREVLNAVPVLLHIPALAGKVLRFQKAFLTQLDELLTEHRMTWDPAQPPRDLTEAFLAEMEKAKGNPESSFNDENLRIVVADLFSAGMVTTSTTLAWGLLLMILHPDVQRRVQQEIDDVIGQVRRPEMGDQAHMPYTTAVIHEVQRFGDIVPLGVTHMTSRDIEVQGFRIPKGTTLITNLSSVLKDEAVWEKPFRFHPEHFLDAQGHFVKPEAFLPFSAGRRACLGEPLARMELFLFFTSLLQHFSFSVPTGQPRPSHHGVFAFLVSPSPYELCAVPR
T1 sequence (P05177 whole entry, canonical isoform): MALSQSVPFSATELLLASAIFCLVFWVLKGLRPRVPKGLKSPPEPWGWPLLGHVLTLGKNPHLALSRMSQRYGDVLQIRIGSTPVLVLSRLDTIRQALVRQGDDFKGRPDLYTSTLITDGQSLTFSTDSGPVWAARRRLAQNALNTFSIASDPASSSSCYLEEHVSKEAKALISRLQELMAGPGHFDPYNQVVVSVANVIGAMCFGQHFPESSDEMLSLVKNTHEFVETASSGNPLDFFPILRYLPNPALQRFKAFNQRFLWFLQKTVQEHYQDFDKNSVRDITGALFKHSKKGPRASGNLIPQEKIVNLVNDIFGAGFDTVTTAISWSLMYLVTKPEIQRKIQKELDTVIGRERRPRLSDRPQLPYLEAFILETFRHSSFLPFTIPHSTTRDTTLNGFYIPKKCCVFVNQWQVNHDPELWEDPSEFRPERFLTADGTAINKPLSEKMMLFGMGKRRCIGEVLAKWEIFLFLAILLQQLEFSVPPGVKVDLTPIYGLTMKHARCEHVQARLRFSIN

With `Cc1nccn1Cc1ccc(-c2cc(CC(C)C)sc2S(=O)(=O)NC(=O)NCCO)cc1F` [Example 1, 1-[[3-[3-Fluoro-4-[(2-methylimidazol-1-yl)methyl]phenyl]-5-isobutyl-2-thienyl]sulfonyl]-3-(2-hydroxyethyl)urea], the inhibition at 10 µM on CYP1A was -26.3%; on CYP2C19, 6.5%; on CYP2C9, 5.5%; on CYP2D6 it was 5.3%; at CYP2C8 it was 35.2%; on CYP3A4, 7.2%. Moreover, the results for the inhibition at 10 µM in the series with CYP3A4&5 and at CYP2B6 were 12.4% and 6.2%, respectively. The “T1/2, + NaDPH” value in series [1] was greater than 1 h. Moreover, the half-life at 1 uM in series [1] was greater than 1 h. Further, the IC50 came out at 0.005 µM in [2] and 24 µM in series [3].

Turning to `Cc1nccn1Cc1ccc(-c2cc(CC(C)C)sc2S(=O)(=O)NC(=O)NCCCO)cc1F` [Example 2, 1-[[3-[3-Fluoro-4-[(2-methylimidazol-1-yl)methyl]phenyl]-5-isobutyl-2-thienyl]sulfonyl]-3-(3-hydroxypropyl)urea], the inhibition at 10 µM on CYP1A is -0.9%; on CYP2C19, 26.3%; on CYP2C9 it was 16.5%; at CYP2D6 it was 13.6%; on CYP2C8, 30.9%; at CYP3A4, 25.3%. The inhibition at 10 µM was 18.4% in the series on CYP3A4&5 and 3.1% at CYP2B6. In series [1], the “T1/2, + NaDPH” value is greater than 1 h. Further, the half-life at 1 uM in series [1] was greater than 1 h. Besides, the figures for the concentration for half-maximal inhibition (IC50) in series [2] and in series [3] were 0.02 µM and 21 µM, respectively.

Regarding `Cc1nccn1Cc1ccc(-c2cc(CC(C)C)sc2S(=O)(=O)NC(=O)NCC(C)(C)O)cc1F` [Example 3, 1-[[3-[3-Fluoro-4-[(2-methylimidazol-1-yl)methyl]phenyl]-5-isobutyl-2-thienyl]sulfonyl]-3-(2-hydroxy-2-methyl-propyl)urea], the inhibition at 10 µM on CYP1A was 15.5%; at CYP2C19 it was 21.2%; at CYP2C9, 31.8%; on CYP2D6, 38%; on CYP2C8 it was 28%; at CYP3A4 it was 52.8%. Also, the inhibition at 10 µM in the series on CYP3A4&5 stood at 29.7%; at CYP2B6, 22.6%. For the same compound, the “T1/2, + NaDPH” value in [1] was greater than 1 h. The half-life at 1 uM in series [1] is greater than 1 h. Besides, the IC50 in series [2] turned out to be 0.0054 µM; in series [3], 23 µM.

`Cc1nccn1Cc1ccc(-c2cc(CC(C)C)sc2S(=O)(=O)NC(=O)NCCO)c(F)c1` [Example 4, 1-[[3-[2-Fluoro-4-[(2-methylimidazol-1-yl)methyl]phenyl]-5-isobutyl-2-thienyl]sulfonyl]-3-(2-hydroxyethyl)urea]: the inhibition at 10 µM is -9.7% on CYP1A; 29.6% on CYP2C19; 11.9% at CYP2C9; 7.6% on CYP2D6; 10.4% on CYP2C8; 24.5% on CYP3A4. Also, the inhibition at 10 µM in the series with CYP3A4&5 turned out to be 18.9%; on CYP2B6, 3.2%. For the same compound, the IC50 in [2] came to 0.0455 µM; in [3] it was 34 µM.

As to `Cc1nccn1Cc1c(F)cc(-c2cc(CC(C)C)sc2S(=O)(=O)NC(=O)NCCO)cc1F` [Example 5, 1-[[3-[3,5-Difluoro-4-[(2-methylimidazol-1-yl)methyl]phenyl]-5-isobutyl-2-thienyl]sulfonyl]-3-(2-hydroxyethyl)urea], the inhibition at 10 µM on CYP1A is 8%; at CYP2C19, -30.1%; at CYP2C9, 38%; at CYP2D6, 36.3%; on CYP2C8, 36.2%; at CYP3A4, 44.6%. In addition, the inhibition at 10 µM with CYP3A4&5 is 27.5%; at CYP2B6 it was 27.4%. The “T1/2, + NaDPH” value in [1] is greater than 1 h. The half-life at 1 uM in series [1] is greater than 1 h. The concentration for half-maximal inhibition (IC50) was determined as 0.0184 µM in series [2] and 49 µM in [3].

For `CC(C)Cc1cc(-c2ccc(Cn3ccnc3C(C)(C)C)c(F)c2)c(S(=O)(=O)NC(=O)NCCO)s1` [Example 6, 1-[[3-[4-[(2-tert-Butylimidazol-1-yl)methyl]-3-fluoro-phenyl]-5-isobutyl-2-thienyl]sulfonyl]-3-(2-hydroxyethyl)urea], the inhibition at 10 µM on CYP1A was determined as 3.5%; on CYP2C19, 14.7%; at CYP2C9, 11.5%; on CYP2D6, 10.1%; on CYP2C8, 73.8%; on CYP3A4, 13%. Besides, the inhibition at 10 µM with CYP3A4&5 is 4.5%; on CYP2B6, 8.2%. Also, the “T1/2, + NaDPH” value in [1] was greater than 1 h. Besides, the half-life at 1 uM in series [1] was greater than 1 h. Further, the IC50 was 0.00064 µM in series [2] and 2.1 µM in [3].

`CC(C)Cc1cc(-c2ccc(Cn3ccnc3C(C)C)c(F)c2)c(S(=O)(=O)NC(=O)NCCO)s1` [Example 10, 1-[[3-[3-Fluoro-4-[(2-isopropylimidazol-1-yl)methyl]phenyl]-5-isobutyl-2-thienyl]sulfonyl]-3-(2-hydroxyethyl)urea]: in [1], the “T1/2, + NaDPH” value is greater than 1 h and the half-life at 1 uM is greater than 1 h. Moreover, the Ki in series [2] (seven-point dose-response curve, read-out: AT2R Ki) amounted to 0.00095 µM. The IC50 in series [2] was determined as 0.0019 µM. Besides, the IC50 in [3] was 8.4 µM.
